Earlier results, collected in patent publication US7799335B2, “Differential delivery of nitric oxide” (Boston Scientific Scimed, Inc., priority 2001, dated 2010).

Legend:
endothelial cells = settings: low levels of nitric oxide (SNP 10-50 uM); Rossig et al. 2000
[1] = tested on: human aortic vascular smooth muscle cells; settings: exogenously and endogenously produced nitric oxide, 10^−5 to 10^−3 molar; Tanner et al. 2000
platelet aggregation = settings: compared with SNAP
vasodilation = settings: compared with SNAP

Structure (SMILES) | effect on TNF-alpha induced apoptosis (endothelial cells) | effect on smooth muscle cell proliferation [1] | inhibition of platelet aggregation (platelet aggregation) | effectiveness as vasodilator (vasodilation)
[N]=O [nitric oxide] | prevented TNF-alpha induced apoptosis in endothelial cells | prevented smooth muscle cell proliferation by inducing G1 phase arrest | – | –
N[C@@H](CCC(=O)N[C@@H](CSN=O)C(=O)NCC(=O)O)C(=O)O [GSN70, S-nitrosoglutathione] | – | – | the opposite is true | less effective vasodilator than SNAP
